Measurements taken from patent US10689383B2, “Optionally fused heterocyclyl-substituted derivatives of pyrimidine useful for the treatment of inflammatory, metabolic, oncologic and autoimmune diseases” (NUEVOLUTION A/S, priority 2014, dated 2020).

How the values were obtained:
[1] = biological target: T1, human RORγt (Ligand Binding Domain) (Homo sapiens, UniProt P51449); assay: Fluorescence Polarization (FP) Assay; conditions: Fluorescence Polarization (FP) Assay; values given as upper bounds of activity ranges; read-out: FP activity range
T1 construct: purchased Crelux (Planegg, Germany) batch no PC5032-1
T1 sequence (P51449 269-508 limits assumed): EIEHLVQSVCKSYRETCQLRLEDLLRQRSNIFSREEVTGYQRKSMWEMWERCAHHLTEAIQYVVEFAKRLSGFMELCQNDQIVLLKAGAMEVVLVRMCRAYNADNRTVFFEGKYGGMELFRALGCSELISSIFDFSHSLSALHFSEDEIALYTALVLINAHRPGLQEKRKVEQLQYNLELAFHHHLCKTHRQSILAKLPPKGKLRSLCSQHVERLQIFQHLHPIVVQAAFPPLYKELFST
Method in brief: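 In vitro FP binding assay monitoring ligand binding within the ligand binding pocket. Probe is a TAMRA-labelled RORγt ligand (MW 910 g/mole); DMSO served as negative control.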

[2] = biological target: T2, yeast Gal4-DNA binding domain fused to the ligand binding domain of human RORγ (Homo sapiens, UniProt P51449); assay: RORγ Reporter Assay (Gal4); format: cell-based; conditions: values given as lower bounds of ranges; for Gal4 activity range @ 0.1 μM (% inhibition): RORγ Reporter Assay (Gal4) at 0.1 μM; for Gal4 activity range @ 1 μM (% inhibition): RORγ Reporter Assay (Gal4) at 1 μM
T2 construct: host or cells: HEK293t
T2 sequence (P51449 269-508 limits assumed): T1 sequence (P51449 269-508 limits assumed)
Method in brief: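 HEK293t reporter cells expressing the hybrid, with Gal4-UAS-driven firefly luciferase, treated in triplicate with compound at 1,000 nM and 100 nM (0.1% DMSO) in medium with 10% charcoal-stripped FBS for 24 h at 37 °C. Luminescence read; percent reduction of RLU calculated relative to vehicle.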

COC1(CNc2ncnc(N3CCCC3c3ccc(C(F)(F)F)cc3)c2F)CCOCC1 (stereo not drawn) [Example 111, 5-fluoro-N-[(4-methoxytetrahydropyran-4-yl)methyl]-6-[2-[4-(trifluoromethyl)phenyl]pyrrolidin-1-yl]pyrimidin-4-amine]
IC50 [1]: < 500 nM | Gal4 activity range @ 0.1 μM (% inhibition) [2]: >50 % inhibition | Gal4 activity range @ 1 μM (% inhibition) [2]: >80 % inhibition

Fc1c(NCC2CCOCC2)ncnc1N1CC(F)(F)CC1c1ccc(C(F)(F)F)cc1 (stereo not drawn) [Example 259, 6-[4,4-difluoro-2-[4-(trifluoromethyl)phenyl]pyrrolidin-1-yl]-5-fluoro-N-(tetrahydropyran-4-ylmethyl)pyrimidin-4-amine]
IC50 [1]: < 500 nM | Gal4 activity range @ 0.1 μM (% inhibition) [2]: >50 % inhibition | Gal4 activity range @ 1 μM (% inhibition) [2]: >80 % inhibition

CC1(CNc2ncnc(N3CCC[C@@H]3c3ccc(C(F)(F)F)cc3)c2F)CCCO1 (stereo partly drawn) [Example 199, 5-fluoro-N-[(2-methyltetrahydrofuran-2-yl)methyl]-6-[(2R)-2-[4-(trifluoromethyl)phenyl]pyrrolidin-1-yl]pyrimidin-4-amine]
IC50 [1]: < 1000 nM | Gal4 activity range @ 0.1 μM (% inhibition) [2]: >20 % inhibition | Gal4 activity range @ 1 μM (% inhibition) [2]: >80 % inhibition

OC1(CNc2ncnc(N3CCCC3c3ccc(C(F)(F)F)cc3)c2F)CCOCC1 (stereo not drawn) [Example 129, 4-[[[5-fluoro-6-[2-[4-(trifluoromethyl)phenyl]pyrrolidin-1-yl]pyrimidin-4-yl]amino]methyl]tetrahydropyran-4-ol]
IC50 [1]: < 500 nM | Gal4 activity range @ 0.1 μM (% inhibition) [2]: >50 % inhibition

Fc1c(NCc2ccc(Cl)nc2)ncnc1N1CCC[C@@H]1c1ccc(C(F)(F)F)cc1 [Example 183, N-[(6-chloro-3-pyridyl)methyl]-5-fluoro-6-[(2R)-2-[4-(trifluoromethyl)phenyl]pyrrolidin-1-yl]pyrimidin-4-amine]
IC50 [1]: < 500 nM | Gal4 activity range @ 0.1 μM (% inhibition) [2]: >50 % inhibition

Cc1ccc(CNc2ncnc(N3CCCC3c3ccc(OC(F)(F)F)cc3)c2F)cn1 (stereo not drawn) [Example 97, 5-fluoro-N-[(6-methyl-3-pyridyl)methyl]-6-[2-[4-(trifluoromethoxy)phenyl]pyrrolidin-1-yl]pyrimidin-4-amine]
IC50 [1]: < 1000 nM | Gal4 activity range @ 0.1 μM (% inhibition) [2]: >20 % inhibition | Gal4 activity range @ 1 μM (% inhibition) [2]: >80 % inhibition

CC(C)(C)C[C@@H](Nc1ncnc(N2CCCC2c2ccc(OC(C)(C)C)cc2)c1F)C(N)=O (stereo partly drawn) [Example 43, (2R)-2-[[6-[2-(4-tert-butoxyphenyl)pyrrolidin-1-yl]-5-fluoro-pyrimidin-4-yl]amino]-4,4-dimethyl-pentanamide]
IC50 [1]: < 1000 nM | Gal4 activity range @ 1 μM (% inhibition) [2]: >80 % inhibition

COc1ccc(C2CCCN2c2ncnc(NCc3ccc(CC(N)=O)cc3)c2F)c(OC)c1 (stereo not drawn) [Example 318, 2-[4-[[[6-[2-(2,4-dimethoxyphenyl)pyrrolidin-1-yl]-5-fluoro-pyrimidin-4-yl]amino]methyl]phenyl]acetamide]
IC50 [1]: < 500 nM | Gal4 activity range @ 0.1 μM (% inhibition) [2]: >20 % inhibition | Gal4 activity range @ 1 μM (% inhibition) [2]: >20 % inhibition

Cc1ccc(C2CCCN2c2ncnc(NCc3ccc(CC(N)=O)cc3)c2F)cc1 (stereo not drawn) [Example 302, 2-[4-[[[5-fluoro-6-[2-(p-tolyl)pyrrolidin-1-yl]pyrimidin-4-yl]amino]methyl]phenyl]acetamide]
IC50 [1]: < 500 nM | Gal4 activity range @ 0.1 μM (% inhibition) [2]: >20 % inhibition | Gal4 activity range @ 1 μM (% inhibition) [2]: >50 % inhibition

CS(=O)(=O)CC1(CNc2ncnc(N3CCC[C@@H]3c3ccc(C(F)(F)F)cc3)c2F)CCOCC1 [Example 240, 5-fluoro-N-[[4-(methylsulfonylmethyl)tetrahydropyran-4-yl]methyl]-6-[(2R)-2-[4-(trifluoromethyl)phenyl]pyrrolidin-1-yl]pyrimidin-4-amine]
IC50 [1]: < 500 nM | Gal4 activity range @ 0.1 μM (% inhibition) [2]: >80 % inhibition | Gal4 activity range @ 1 μM (% inhibition) [2]: >80 % inhibition
